Data: patent US11613533B2, “Compounds useful for inhibiting RET kinase” (Eli Lilly and Company, priority 2020, dated 2023)
pEC50, pIC50: −log10 of the molar value.

Experiments:
[1] = target: T1, KIF5B-RET mutant form V804M in HEK293 cells (Homo sapiens, UniProt P07949, V804M); test: RET cell assay (In-Cell Western, phospho-RET Y1062), V804M; type: cell-based; details: HEK293, doxycycline-induced KIF5B-RET V804M, 1 hr compound treatment; read-out: EC50, inhibition of intracellular autophosphorylation of RET at tyrosine 1062, V804M cells
T1 construct: expressed in transfected cells; host or cells: HEK293; the other entry of the earlier key: KIF5B (P33176, Kinesin-1 heavy chain)
T1 sequence (P07949 713-1063 V804M limits assumed): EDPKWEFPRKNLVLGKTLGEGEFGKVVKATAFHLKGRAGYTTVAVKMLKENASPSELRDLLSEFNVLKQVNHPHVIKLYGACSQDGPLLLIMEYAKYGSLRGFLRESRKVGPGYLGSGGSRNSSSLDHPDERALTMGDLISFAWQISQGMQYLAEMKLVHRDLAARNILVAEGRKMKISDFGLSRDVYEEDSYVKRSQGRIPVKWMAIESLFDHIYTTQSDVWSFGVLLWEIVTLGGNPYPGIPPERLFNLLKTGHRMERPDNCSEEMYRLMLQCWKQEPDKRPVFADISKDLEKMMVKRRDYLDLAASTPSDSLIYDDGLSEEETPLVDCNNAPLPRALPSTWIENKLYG
Procedure: Compounds of formulas (I), (II), and (III) are screened for their ability to inhibit the intracellular autophosphorylation of RET at tyrosine 1062 as detected by In-Cell Western. HEK293 cells containing a doxycycline-inducible plasmid for inducible expression of KIF5B-RET WT and RET mutant forms V804M and G810S are seeded at 25,000 cells/well into black poly-D-lysine pre-coated 384-well plates (Corning, Catalog No. 356697). Expression of KIF5B-RET is induced with doxycycline at 1 μg/mL and cells are incubated at 37° C. overnight. Compounds are prepared in a threefold serial dilution in DMSO before further diluting 1:100 in media prior to the addition to the cells (0.1% final DMSO concentration). Compound treatment is performed for 1 hr at 37° C. followed by fixation of cells with 4% formaldehyde for 20 min at RT and cell permeabilisation with ice-cold MeOH for 10 min at RT. Cells are incubated with Intercept® blocking buffer (Li—COR, Catalogue No. 927-70010) for 1 hr at RT. Incubation with primary antibodies against human phospho-RET (Y1062) (R&D, Catalogue No. AF5009, 1/250 dilution) and human glyceraldehyde-3-phosphate dehydrogenase (clone 6C5, Merck, Catalog No. MAB374, 1/1000 dilution) are performed overnight at 4° C. Incubation with secondary antibodies IRDye® 800CW goat anti-rabbit IgG (Li—COR, Catalogue No. 926-32211, 1/1000 dilution) and IRDye® 680CW goat anti-mouse IgG (Li—COR, Catalogue No. 926-68070, 1/1000 dilution) are performed for 1 hr at RT. All antibody dilutions are done in Intercept® blocking buffer containing 0.05% Tween20. After washing cells with PBS-T (Cell Signaling technology, Catalogue No. 9809), the images are acquired on a Li—COR Odyssey LCx at 700 and 800 nm. Percent of DMSO control is calculated with 100% signal referring to control conditions containing no compound (0.4% DMSO only) and 0% signal represented by conditions containing control compound. The % of DMSO control values are fit to a 4 parameter logistic curve, and the determined EC50 value is defined as the estimated concentration of inhibitor at the inflexion point of the fitted curve.

[2] = target: T2, V804M mutant RET kinase (N-terminal GST tagged recombinant human V804M mutant RET cytoplasmic domain, aa 658-end) (Homo sapiens, UniProt P07949, V804M); test: RET enzyme assay (HTRF KinEASE TK), V804M; type: biochemical; details: 1 mM ATP, 40 min incubation at 22° C.
T2 construct: human V804M mutant RET cytoplasmic domain (aa 658-end); GST (N); purchased Millipore 14-760
T2 sequence (P07949 658-1114 V804M limits assumed): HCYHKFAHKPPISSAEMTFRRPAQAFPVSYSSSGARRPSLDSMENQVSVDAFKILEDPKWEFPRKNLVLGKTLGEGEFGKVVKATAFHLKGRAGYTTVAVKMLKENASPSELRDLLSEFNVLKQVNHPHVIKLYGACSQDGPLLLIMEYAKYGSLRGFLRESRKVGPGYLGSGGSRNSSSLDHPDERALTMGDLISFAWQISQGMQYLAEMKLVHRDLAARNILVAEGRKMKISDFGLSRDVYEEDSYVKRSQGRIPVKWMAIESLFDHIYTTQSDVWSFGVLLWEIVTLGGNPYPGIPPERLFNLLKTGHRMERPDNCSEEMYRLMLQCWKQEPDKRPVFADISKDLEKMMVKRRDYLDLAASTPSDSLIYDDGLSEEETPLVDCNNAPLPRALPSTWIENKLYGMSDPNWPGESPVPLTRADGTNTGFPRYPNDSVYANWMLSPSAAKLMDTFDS
Procedure: Assay A: RET Enzyme Assay
Compounds of formulas I, II, or III are screened for their ability to inhibit wildtype, V804M, and G810S mutant RET kinase using CisBio's HTRF® KinEASE™TK assay technology. N-terminal GST tagged recombinant human RET cytoplasmic domain (aa 658-end) from Eurofins ([…]; Catalog No. 14-570M) or N-terminal GST tagged recombinant human V804M mutant RET cytoplasmic domain (aa 658-end) from Millipore (1.25 nM enzyme; Catalog No. 14-760) or N-Terminal GST-tagged recombinant human G810S (aa-658-end) (1.25 nM Enzyme; produced in insect cells) is incubated with 62.5 nM TK-substrate biotin (CisBio, part of Catalog No. 62TK0PEC) and 1 mM ATP along with test compound (0.4% final DMSO in the assay) in a 1× Cisbio enzymatic buffer consisting of […], 5 mM MgCl2, 0.04% BSA and 0.05% Tween20 in a volume of 10 μL. Compounds are typically prepared in a threefold serial dilution in DMSO and added to the assay to give the appropriate final concentration. After a 40-60 min (40 min for V804M, 60 min for WT and G810S) incubation at 22° C., the reaction is quenched by adding quench solution (10 μL) containing 7.8 nM Streptavidine-XL665 and 0.5×TK-ab-Cryptate in HTRF detection buffer (all from CisBio, part of Cat. No. 62TK0PEC). After a 60-80 min incubation (60 minutes for WT, 80 minutes for V804M and G810S) at 22° C., the extent of reaction is determined using a PHERastar plate reader via HTRF detection at excitation/emission 337/665 nm. Percent of inhibition is calculated with 0% inhibition referring to control conditions containing no compound (0.4% DMSO only) and 100% inhibition represented by conditions containing no enzyme. The % inhibition values are fit to a 4 parameter logistic curve, and the determined IC50 value is defined as the estimated concentration of inhibitor at the inflexion point of the fitted curve.

Structure (SMILES) | pEC50 [1] | pIC50 [2]
CCC(C)(C)c1cc(NC(=O)C(C)c2ccc(-c3nn(C(C)C)c(N)c3C(N)=O)cc2)no1 (single isomer, unassigned; isomer 2) [Example 52, 5-Amino-1-isopropyl-3-[4-(1-[[5-(2-methylbutan-2-yl)-1,2-oxazol-3-yl]carbamoyl]ethyl)phenyl]pyrazole-4-carboxamide, Isomer 2] | > 7.00 | > 7.00
CCC(C)(C)c1cc(NC(=O)C(C)c2ccc(-c3nn(C(C)C)c(N)c3C(N)=O)cc2)on1 (single isomer, unassigned; isomer 1) [Example 15, 5-Amino-1-isopropyl-3-[4-(1-[[3-(2-methylbutan-2-yl)-1,2-oxazol-5-yl]carbamoyl]ethyl)phenyl]pyrazole-4-carboxamide, Isomer 1] | > 7.00 | > 7.00
CC(C(=O)Nc1cc(CC(C)(C)C)no1)c1ccc(-c2nn(C(C)C)c(N)c2C(N)=O)cc1 (single isomer, unassigned; isomer 1) [Example 1, 5-Amino-3-[4-(1-[[3-(2,2-dimethylpropyl)-1,2-oxazol-5-yl]carbamoyl]ethyl)phenyl]-1-isopropylpyrazole-4-carboxamide, Isomer 1] | > 7.00 | > 7.00
CC(C(=O)Nc1cc(C2(C)CC2)no1)c1ccc(-c2nn(C(C)C)c(N)c2C(N)=O)cc1 (single isomer, unassigned; isomer 1) [Example 35, 5-Amino-1-isopropyl-3-[4-(1-[[3-(1-methylcyclopropyl)-1,2-oxazol-5-yl]carbamoyl]ethyl)phenyl]pyrazole-4-carboxamide, Isomer 1] | > 7.00 | > 7.00
CCC(C)(C)c1cc(NC(=O)C(C)c2ccc(-c3nn(C(C)C)c(N)c3C(N)=O)nc2)no1 (single isomer, unassigned; isomer 2) [Example 66, 5-Amino-1-isopropyl-3-[5-(1-[[5-(2-methylbutan-2-yl)-1,2-oxazol-3-yl]carbamoyl]ethyl)pyridin-2-yl]pyrazole-4-carboxamide, Isomer 2] | > 7.00 | > 7.00
CC(C(=O)Nc1cc(C(C)(C)C(F)(F)F)on1)c1ccc(-c2nn(C(C)C)c(N)c2C(N)=O)nc1 (single isomer, unassigned; isomer 2) [Example 64, 5-Amino-1-isopropyl-3-[5-(1-[[5-(1,1,1-trifluoro-yl)-1,2-oxazol-3-2-methylpropan-2-yl]carbamoyl]ethyl)pyridin-2-yl]pyrazole-4-carboxamide, Isomer 2] | > 7.00 | > 7.00
CC(C(=O)Nc1cc(C(C)(C)C(F)(F)F)no1)c1ccc(-c2nn(C(C)C)c(N)c2C(N)=O)cc1 (single isomer, unassigned; isomer 1) [Example 17, 5-Amino-1-isopropyl-3-[4-(1-[[3-(1,1,1-trifluoro-2-methylpropan-2-yl)-1,2-oxazol-5-yl]carbamoyl]ethyl)phenyl]pyrazole-4-carboxamide, Isomer 1] | > 7.00 | > 7.00

Further lines, results first:

pEC50 [1] | pIC50 [2] | Structure (SMILES)
> 7.00 | > 7.00 | CC(C(=O)Nc1cc(C(C)(C)C)sn1)c1ccc(-c2nn(C(C)C)c(N)c2C(N)=O)cc1 (single isomer, unassigned; isomer 2) [Example 80, 5-Amino-3-(4-[1-[(5-tert-butyl-1,2-thiazol-3-yl)carbamoyl]ethyl]phenyl)-1-isopropylpyrazole-4-carboxamide, isomer 2]
> 7.00 | > 7.00 | CC(C(=O)Nc1cc(C(C)(C)CC(F)(F)F)on1)c1ccc(-c2nn(C(C)C)c(N)c2C(N)=O)nc1 (single isomer, unassigned; isomer 2) [Example 68, 5-Amino-1-isopropyl-3-(5-(1-oxo-1-((5-(4,4,4-trifluoro-2-methylbutan-2-yl)isoxazol-3-yl)amino)propan-2-yl)pyridin-2-yl)-1H-pyrazole-4-carboxamide, Isomer 2]
> 7.00 | > 7.00 | CCC(C)(C)c1cc(NC(=O)C(C)c2ccc(-c3nn(C(C)C)c(N)c3C(N)=O)cn2)on1 (single isomer, unassigned; isomer 2) [Example 84, 5-Amino-1-isopropyl-3-[6-[2-[[3-(1,1-dimethylpropyl)isoxazol-5-yl]amino]-1-methyl-2-oxo-ethyl]-3-pyridyl]pyrazole-4-carboxamide, Isomer 2]
> 7.00 | > 7.00 | CC(C(=O)Nc1cc(C(C)(C)C(F)(F)F)no1)c1ccc(-c2nn(C(C)C)c(N)c2C(N)=O)cn1 (single isomer, unassigned; isomer 2) [Example 90, 5-Amino-1-isopropyl-3-[6-[1-methyl-2-oxo-2-[[3-(2,2,2-trifluoro-1,1-dimethyl-ethyl)isoxazol-5-yl]amino]ethyl]-3-pyridyl]pyrazole-4-carboxamide, Isomer 2]
> 7.00 | > 7.00 | CC(C(=O)Nc1cc(C(C)(C)C(F)(F)F)on1)c1ccc(-c2nn(C(C)C)c(N)c2C(N)=O)cc1 (single isomer, unassigned; isomer 1) [Example 81, 5-Amino-1-isopropyl-3-[4-(1-[[5-(1,1,1-trifluoro-2-methylpropan-2-yl)-1,2-oxazol-3-yl]carbamoyl]ethyl)phenyl]pyrazole-4-carboxamide, Isomer 1]
> 7.00 | > 7.00 | CC(C(=O)Nc1cc(-c2ccc(Cl)cc2Cl)no1)c1ccc(-c2nn(C(C)C)c(N)c2C(N)=O)cn1 (single isomer, unassigned; isomer 2) [Example 94, 5-Amino-1-isopropyl-3-[6-[2-[[3-(2,4-dichlorophenyl)isoxazol-5-yl]amino]-1-methyl-2-oxo-ethyl]-3-pyridyl]pyrazole-4-carboxamide, Isomer 2]
